Experimental data as given in paper PMC12649549, “Sequence Permutation Generated Lysine and Tryptophan-Rich Antimicrobial Peptides with Enhanced Therapeutic Index” (Antibiotics, 2025).
Where two headings read alike, the source gives them in different places.

Assays:
[1] = system: A. baumannii 14B0091 (Acinetobacter sp., BCRC number 14B0091)
Procedure: (§1) The antibacterial and salt-resistant activity of the peptides was tested using Escherichia coli (ATCC 25922), Pseudomonas aeruginosa Migula (ATCC 27853), Acinetobacter sp. (BCRC number 14B0091, BCRC number 14B0097, and BCRC number 14B0100), and Staphylococcus aureus sp. strains (ATCC 25923, ATCC 33591, ATCC 33592, ATCC 33593, and ATCC 6538). All bacteria were obtained from the Food Industry Research and Development Institute (Hsinchu, Taiwan) and cultured in sterilized Müller-Hinton (MH) broth at 37 °C and 200 rpm for 8 h. The inoculum concentrations were determined by measuring the optical density at 600 nm (OD 600 = 1, approximately 10^8 CFU/mL) using an Ultrospec 2100 pro UV-Visible spectrophotometer (Biochrom Ltd., Cambridge, UK) after 8 h of culture.
(§2) The antibacterial activities of the peptides in Müller-Hinton (MH) broth and modified LYM broth were determined using the standard broth microdilution method as per Clinical and Laboratory Standards Institute (CLSI) guidelines. The LYM broth was prepared with specific components and adjusted to different conditions, including varying concentrations of NaCl and MgCl2, and different pH levels. To prepare the LYM broth, 5.4 mM KCl, 5.6 mM Na2HPO4, 0.5 mM MgSO4, and 1.0 mM sodium citrate were added. Additionally, 0.4 mg of ZnCl2, 2.0 mg of FeCl3·6H2O, 0.1 mg of CuSO4·5H2O, 0.1 mg of MnSO4·H2O, 0.1 mg of Na2B4O7∙10H2O, 700 mg of amino acid mixtures without tryptophan (Takara Bio Inc., San Jose, CA, USA), and 20 mg of L-tryptophan were added per liter of medium. The pH was adjusted to 7.4, and a vitamin mixture (100X, Sigma) and glucose concentration of 2% were added. For different conditions of LYM broth, NaCl concentrations of 300, 200, 150, and 50 mM, MgCl2 concentrations of 2.5, 1.5, and 0.5 mM, and pH levels of 6.5, 5.5, and 4.5 were adjusted. Bacterial strains were incubated in MH broth overnight, regrown, and diluted to a final concentration of 5 × 10^5 CFU/mL. Peptides were added to each well at final concentrations of 50, 25, 12.5, 6.25, 3.13, 1.56, and 0.78 µg/mL, and 99 µL of diluted microbes was loaded into each well of a polypropylene 96-well plate. […] The Morpheus HeatMap software (https://software.broadinstitute.org/morpheus/) was used to display MIC values on a color scale. All experiments were independently repeated three times.

[2] = system: A. baumannii 14B0097 (Acinetobacter sp., BCRC number 14B0097)
Procedure: as §1, §2

[3] = system: Escherichia coli (ATCC 25922)
Procedure: as §1, §2

[4] = system: Pseudomonas aeruginosa Migula (ATCC 27853)
Procedure: as §1, §2

S. aureus ATCC 25923 = system: S. aureus ATCC 25923
Procedure: as §1, §2

S. aureus ATCC 6538 = system: S. aureus ATCC 6538
Procedure: as §1, §2

Gram-negative bacteria = experiment: Geometric mean MIC and therapeutic index, Gram-negative bacteria; type: cell-based; settings: Gram-negative bacteria
Procedure: (§3) In this study, we aimed to investigate the potential of W5K series peptides for therapeutic use. To evaluate their efficacy for antibacterial therapy, we used the Therapeutic Index (TI) as a measure of their cell selectivity. The TI was calculated as the ratio of the concentration causing 10% hemolysis of human red blood cells (HC10) to the geometric mean minimum inhibitory concentration (GM) of the peptides against both Gram-negative and Gram-positive bacteria. This parameter was used to quantitatively assess the balance between antibacterial potency and cytotoxicity among the W5K derivatives.
as §2

[5] = system: Both Gram-positive and -negative bacteria; experiment: Geometric mean MIC, therapeutic index and fold changes of MIC, whole panel of strains; type: cell-based; settings: for weakening of antibacterial efficacy (MIC): LYM broth
Procedure: as §3, §2

[6] = LYM broth, 0 mM NaCl, 16 h, 37 °C
[7] = LYM broth, 50 mM NaCl, 16 h, 37 °C
[8] = LYM broth, 100 mM NaCl, 16 h, 37 °C
[9] = LYM broth, 200 mM (NaCl), 16 h, 37 °C
[10] = LYM broth, 300 mM (NaCl), 16 h, 37 °C
[11] = MH broth, 5 × 10^5 CFU/mL, 16 h, 37 °C, repeated three times

## Ac-KKWRKWLKWLAKK-NH2 [W5K/A9W]
[1]; [6]
  MIC: 1.56 µg/mL
[1]; LYM broth, 0.5 mM MgCl2
  MIC: 1.56 µg/mL
[1]; LYM broth, 1.5 mM MgCl2
  MIC: 1.56 µg/mL
[1]; LYM broth, 2.5 mM MgCl2
  MIC: 1.56 µg/mL
[1]; [7]
  MIC: 1.56 µg/mL
[1]; [8]
  MIC: 1.56 µg/mL
[1]; [9]
  MIC: 1.56 µg/mL
[1]; [10]
  MIC: 1.56 µg/mL
[1]; LYM broth, pH 4.5
  MIC: 1.56 µg/mL
[1]; LYM broth, pH 5.5
  MIC: 1.56 µg/mL
[1]; LYM broth, pH 6.5
  MIC: 1.56 µg/mL
[1]; [11]
  MIC: 1.56 µg/mL
[2]; [6]
  MIC: 1.56 µg/mL
[2]; LYM broth, 0.5 mM MgCl2
  MIC: 1.56 µg/mL
[2]; LYM broth, 1.5 mM MgCl2
  MIC: 1.56 µg/mL
[2]; LYM broth, 2.5 mM MgCl2
  MIC: 1.56 µg/mL
[2]; [7]
  MIC: 1.56 µg/mL
[2]; [8]
  MIC: 1.56 µg/mL
[2]; [9]
  MIC: 1.56 µg/mL
[2]; [10]
  MIC: 1.56 µg/mL
[2]; LYM broth, pH 4.5
  MIC: 1.56 µg/mL
[2]; LYM broth, pH 5.5
  MIC: 1.56 µg/mL
[2]; LYM broth, pH 6.5
  MIC: 1.56 µg/mL
[2]; [11]
  MIC: 1.56 µg/mL
[3]; [6]
  MIC: 1.56 µg/mL
[3]; LYM broth, 0.5 mM MgCl2
  MIC: 3.13 µg/mL
[3]; LYM broth, 1.5 mM MgCl2
  MIC: 3.13 µg/mL
[3]; LYM broth, 2.5 mM MgCl2
  MIC: 6.25 µg/mL
[3]; [7]
  MIC: 1.56 µg/mL
[3]; [8]
  MIC: 3.13 µg/mL
[3]; [9]
  MIC: 3.13 µg/mL
[3]; [10]
  MIC: 12.5 µg/mL
[3]; LYM broth, pH 4.5
  MIC: 1.56 µg/mL
[3]; LYM broth, pH 5.5
  MIC: 1.56 µg/mL
[3]; LYM broth, pH 6.5
  MIC: 1.56 µg/mL
[3]; [11]
  MIC: 3.13 µg/mL
[4]; [6]
  MIC: 1.56 µg/mL
[4]; LYM broth, 0.5 mM MgCl2
  MIC: 1.56 µg/mL
[4]; LYM broth, 1.5 mM MgCl2
  MIC: 3.13 µg/mL
[4]; LYM broth, 2.5 mM MgCl2
  MIC: 3.13 µg/mL
[4]; [7]
  MIC: 1.56 µg/mL
[4]; [8]
  MIC: 1.56 µg/mL
[4]; [9]
  MIC: 3.13 µg/mL
[4]; [10]
  MIC: 6.25 µg/mL
[4]; LYM broth, pH 4.5
  MIC: 1.56 µg/mL
[4]; LYM broth, pH 5.5
  MIC: 1.56 µg/mL
[4]; LYM broth, pH 6.5
  MIC: 1.56 µg/mL
[4]; [11]
  MIC: 3.13 µg/mL
S. aureus ATCC 25923; [6]
  MIC: 1.56 µg/mL
S. aureus ATCC 25923; LYM broth, 0.5 mM MgCl2
  MIC: 1.56 µg/mL
S. aureus ATCC 25923; LYM broth, 1.5 mM MgCl2
  MIC: 3.13 µg/mL
S. aureus ATCC 25923; LYM broth, 2.5 mM MgCl2
  MIC: 3.13 µg/mL
S. aureus ATCC 25923; [7]
  MIC: 1.56 µg/mL
S. aureus ATCC 25923; [8]
  MIC: 3.13 µg/mL
S. aureus ATCC 25923; [9]
  MIC: 3.13 µg/mL
S. aureus ATCC 25923; [10]
  MIC: 6.25 µg/mL
S. aureus ATCC 25923; LYM broth, pH 4.5
  MIC: 3.13 µg/mL
S. aureus ATCC 25923; LYM broth, pH 5.5
  MIC: 1.56 µg/mL
S. aureus ATCC 25923; LYM broth, pH 6.5
  MIC: 1.56 µg/mL
S. aureus ATCC 25923; [11]
  MIC: 3.13 µg/mL
S. aureus ATCC 6538; [6]
  MIC: 1.56 µg/mL
S. aureus ATCC 6538; LYM broth, 0.5 mM MgCl2
  MIC: 1.56 µg/mL
S. aureus ATCC 6538; LYM broth, 1.5 mM MgCl2
  MIC: 1.56 µg/mL
S. aureus ATCC 6538; LYM broth, 2.5 mM MgCl2
  MIC: 1.56 µg/mL
S. aureus ATCC 6538; [7]
  MIC: 1.56 µg/mL
S. aureus ATCC 6538; [8]
  MIC: 1.56 µg/mL
S. aureus ATCC 6538; [9]
  MIC: 3.13 µg/mL
S. aureus ATCC 6538; [10]
  MIC: 6.25 µg/mL
S. aureus ATCC 6538; LYM broth, pH 4.5
  MIC: 3.13 µg/mL
S. aureus ATCC 6538; LYM broth, pH 5.5
  MIC: 1.56 µg/mL
S. aureus ATCC 6538; LYM broth, pH 6.5
  MIC: 1.56 µg/mL
S. aureus ATCC 6538; [11]
  MIC: 6.25 µg/mL
Gram-negative bacteria; MH broth, MIC >50 µg/mL counted as 100 µg/mL
  GM G− (geometric mean of the MIC values): 2.1 µg/mL
Gram-negative bacteria; HC10/GM
  Therapeutic Index (TI) G−: 14.5
[5]; Both Gram-positive and -negative bacteria, MH broth, MIC >50 µg/mL counted as 100 µg/mL
  GM G−/+ (geometric mean of the MIC values): 4.1 µg/mL
[5]; HC10/GM, both Gram-positive and -negative bacteria
  Therapeutic Index (TI) G−/+: 7.3
[5]; 300 mM NaCl
  weakening of antibacterial efficacy (MIC): up to 4 fold
[5]; MgCl2 rising above 0.5 mM
  weakening of antibacterial efficacy (MIC): up to 2 fold
